Test results as given in the supplement of paper PMC11208160.

Assay: recombinant barcode read abundance after kanamycin selection (control-corrected) (log10(CPM+1)); higher = more efficient recombination; sequences stand for … in AGTGCAGAGAAAATCGGCCAGTTTTCTCTGCCTGCAGTCCGCATGCCGT…AGATTTATGCAGCGGACTGCCTTTCTCCCAAAGTGATAAACCGGACAGTATCATGGACCGGTTTTCCCGGTAATCCGTATTTGCAAGGTTGGTTTCACT; site = the 11-nt target
Method in brief: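 Pooled oligos, each joining a target to an IS621 bridge RNA target-binding loop, were cloned and co-electroporated with a donor plasmid into E. coli. Selective plates carried chloramphenicol/ampicillin/kanamycin and 0.1 mM IPTG, while chloramphenicol/ampicillin LB agar served as control, with two replicates of each. Recombination efficiency rests on averaged, control-corrected counts per million of barcodes at recombinant junctions, shown as log10(CPM+1).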
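Further: IS621 recombinase and bridge RNA in Escherichia coli cells.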

Sequence	recombinant barcode read abundance (log10)
TCCACAACTTGGGTTCTAACCTGTTGCCT (site TCCACAACTAG)	0.273
TCCACAACTTGGGTTCTAACCTGTTGCCT (site TCCACACCTAG)	0.122
TCCACAACTTGGGTTCTAACCTGTTGCCT (site TCCACAGCTAG)	0.283
TCCACAACTTGGGTTCTAACCTGTTGCCT (site TCCACATCTAG)	0.193
TCCACATCTTGGGTTCTAACCTGTTGCCT (site TCCACAACTAG)	0.0262
TCCACATCTTGGGTTCTAACCTGTTGCCT (site TCCACACCTAG)	0.793
TCCACATCTTGGGTTCTAACCTGTTGCCT (site TCCACAGCTAG)	0.00992
TCCACATCTTGGGTTCTAACCTGTTGCCT (site TCCACATCTAG)	0.477
TCCATCCCTTGGGTTCTAACCTGTTGCTA (site TCCAGTCCTTA)	0.0637
TCCATCCCTTGGGTTCTAACCTGTTGCTA (site TCCATCCCTTA)	0.605
TCCCAGTCTTGGGTTCTAACCTGTTGCAT (site TCCCAGTCTAA)	0.542
TCCCAGTCTTGGGTTCTAACCTGTTGCAT (site TCCCAGTCTAC)	0.104
TCCCAGTCTTGGGTTCTAACCTGTTGCAT (site TCCCAGTCTAG)	0.242
TCCCAGTCTTGGGTTCTAACCTGTTGCAT (site TCCCAGTCTAT)	1.88
TCCCAGTCTTGGGTTCTAACCTGTTGCCT (site TCCCAGTCTAA)	0.0986
TCCCAGTCTTGGGTTCTAACCTGTTGCCT (site TCCCAGTCTAC)	0.889
TCCCAGTCTTGGGTTCTAACCTGTTGCCT (site TCCCAGTCTAG)	1.82
TCCCAGTCTTGGGTTCTAACCTGTTGCCT (site TCCCAGTCTAT)	0.594
TCCCAGTCTTGGGTTCTAACCTGTTGCGT (site TCCCAGTCTAA)	0.433
TCCCAGTCTTGGGTTCTAACCTGTTGCGT (site TCCCAGTCTAC)	2.59
TCCCAGTCTTGGGTTCTAACCTGTTGCGT (site TCCCAGTCTAG)	0.375
TCCCAGTCTTGGGTTCTAACCTGTTGCGT (site TCCCAGTCTAT)	1.6

Sequence	recombinant barcode read abundance (log10)
TCCCAGTCTTGGGTTCTAACCTGTTGCTT (site TCCCAGTCTAA)	0.681
TCCCAGTCTTGGGTTCTAACCTGTTGCTT (site TCCCAGTCTAC)	0.0373
TCCCAGTCTTGGGTTCTAACCTGTTGCTT (site TCCCAGTCTAG)	0.684
TCCCAGTCTTGGGTTCTAACCTGTTGCTT (site TCCCAGTCTAT)	1.19
TCCCATACTTGGGTTCTAACCTGTTGCCT (site TCCCATACTAG)	0.493
TCCCATACTTGGGTTCTAACCTGTTGCCT (site TCCCATCCTAG)	0.33
TCCCATACTTGGGTTCTAACCTGTTGCCT (site TCCCATGCTAG)	0.109
TCCCATACTTGGGTTCTAACCTGTTGCCT (site TCCCATTCTAG)	0.0766
TCCCCGGCTTGGGTTCTAACCTGTTGCCT (site TACCCGCCTAG)	0.0487
TCCCCGGCTTGGGTTCTAACCTGTTGCCT (site TCCCCGGCTAG)	0.285
TCCCGAACTTGGGTTCTAACCTGTTGCCT (site TCCCGAACTAG)	0.598
TCCCGAACTTGGGTTCTAACCTGTTGCCT (site TCCCGACCTAG)	0.337
TCCCGAACTTGGGTTCTAACCTGTTGCCT (site TCCCGAGCTAG)	0.173
TCCCGAACTTGGGTTCTAACCTGTTGCCT (site TCCCGATCTAG)	0.0125
TCCCGTCCTTGGGTTCTAACCTGTTGCCT (site TCCCGTCCTAG)	0.636
TCCCGTCCTTGGGTTCTAACCTGTTGCCT (site TCCCTTCCTAG)	0.196
TCCGACACTTGGGTTCTAACCTGTTGCCT (site TACGACACTAG)	0.227
TCCGACACTTGGGTTCTAACCTGTTGCCT (site TCCGACACTAG)	1.95
TCCGAGACTTGGGTTCTAACCTGTTGCGT (site TCCGAGACTAC)	1.56
TCCGAGACTTGGGTTCTAACCTGTTGCGT (site TTCGAAACTAC)	0.226
TCCGAGCCTTGGGTTCTAACCTGTTGCGT (site TCCGAGCCTAC)	2.18
TCCGAGCCTTGGGTTCTAACCTGTTGCGT (site TCCGAGCCTAT)	1.03

Sequence	recombinant barcode read abundance (log10)
TCCGAGGCTTGGGTTCTAACCTGTTGCTG (site TCAGAGGCTCA)	0.266
TCCGAGGCTTGGGTTCTAACCTGTTGCTG (site TCCGAGGCTCA)	0.739
TCCGAGGCTTGGGTTCTAACCTGTTGCTG (site TCGGAGGCTCA)	0.521
TCCGAGGCTTGGGTTCTAACCTGTTGCTG (site TCTGAGGCTCA)	0.241
TCCGATACTTGGGTTCTAACCTGTTGCGT (site GTGTGGCCTTG)	0.11
TCCGATACTTGGGTTCTAACCTGTTGCGT (site TCCGATACTAC)	1.64
TCCGGCGCTTGGGTTCTAACCTGTTGCGG (site CTTACTACTTG)	0.0112
TCCGGCGCTTGGGTTCTAACCTGTTGCGG (site TCCGGCGCTCC)	1.75
TCCGTATCTTGGGTTCTAACCTGTTGCAG (site GAGTGGCCTTC)	0.16
TCCGTATCTTGGGTTCTAACCTGTTGCAG (site TCCGTATCTCT)	1.05
TCCGTCCCTTGGGTTCTAACCTGTTGCAT (site TCCGACCCTGT)	0.0832
TCCGTCCCTTGGGTTCTAACCTGTTGCAT (site TCCGTCCCTAT)	1.4
TCCGTGACTTGGGTTCTAACCTGTTGCCT (site TCCGTGACTAG)	2.07
TCCGTGACTTGGGTTCTAACCTGTTGCCT (site TCCGTGCCTAG)	0
TCCGTGACTTGGGTTCTAACCTGTTGCCT (site TCCGTGGCTAG)	0.436
TCCGTGACTTGGGTTCTAACCTGTTGCCT (site TCCGTGTCTAG)	0.352
TCCTAACCTTGGGTTCTAACCTGTTGCTG (site ACCTAACCTCT)	0.0586
TCCTAACCTTGGGTTCTAACCTGTTGCTG (site TCCTAACCTCA)	1.37
TCCTAATCTTGGGTTCTAACCTGTTGCAT (site TCCTAACCTAG)	0.0364
TCCTAATCTTGGGTTCTAACCTGTTGCAT (site TCCTAATCTAT)	0.607
TCCTACCCTTGGGTTCTAACCTGTTGCCT (site TACTACCCTAG)	0.0977
TCCTACCCTTGGGTTCTAACCTGTTGCCT (site TCCTACCCTAG)	1.36

Sequence	recombinant barcode read abundance (log10)
TCCTACCCTTGGGTTCTAACCTGTTGCCT (site TGCTACCCTAG)	0.052
TCCTACCCTTGGGTTCTAACCTGTTGCCT (site TTCTACCCTAG)	0.271
TCCTACTCTTGGGTTCTAACCTGTTGCCG (site TCCGACTCTCG)	0.0792
TCCTACTCTTGGGTTCTAACCTGTTGCCG (site TCCTACTCTCG)	0.688
TCCTAGACTTGGGTTCTAACCTGTTGCGG (site TCCTAGACTCC)	1.53
TCCTAGACTTGGGTTCTAACCTGTTGCGG (site TTCTAGACTCC)	0.117
TCCTAGGCTTGGGTTCTAACCTGTTGCGC (site TCCTAGGCTGC)	1.72
TCCTAGGCTTGGGTTCTAACCTGTTGCGC (site TCTTAGGCTAC)	0.161
TCCTATGCTTGGGTTCTAACCTGTTGCTA (site CAAGTGACTAG)	0.0648
TCCTATGCTTGGGTTCTAACCTGTTGCTA (site TCCTATGCTTA)	0.0755
TCCTATTCTTGGGTTCTAACCTGTTGCGA (site TACTATGCTTC)	0.141
TCCTATTCTTGGGTTCTAACCTGTTGCGA (site TCCTATTCTTC)	0.544
TCCTGGGCTTGGGTTCTAACCTGTTGCCG (site TCCTGGGCTCG)	0.0509
TCCTGGGCTTGGGTTCTAACCTGTTGCCG (site TTATGGGCTCG)	0.0305
TCCTGTACTTGGGTTCTAACCTGTTGCAT (site TCCAGTACTAT)	0.272
TCCTGTACTTGGGTTCTAACCTGTTGCAT (site TCCCGTACTAT)	0.705
TCCTGTACTTGGGTTCTAACCTGTTGCAT (site TCCGGTACTAT)	0.00868
TCCTGTACTTGGGTTCTAACCTGTTGCAT (site TCCTGTACTAT)	1.01
TCGAACCCTTGGGTTCTAACCTGTTGCGA (site TCGAACCCTTC)	0.927
TCGAACCCTTGGGTTCTAACCTGTTGCGA (site TCGCACCCTTC)	0.0454
